Laboratory results published in ChEMBL document CHEMBL4196011, “The lead optimization of the polyamine conjugate of flavonoid with a naphthalene motif: Synthesis and biological evaluation” (Eur J Med Chem, 2018).
pIC50: −log10 of the molar value.

Key:
[1] = system: HepG2; experiment: Induction of apoptosis in human HepG2 cells assessed as viable cells at 7.5 uM after 36 hrs by Annexin V-FITC/propidium iodide staining-based flow cytometry (reference value: 96.6%); assay type: functional; details: HepG2, 36 h, read-out: Activity
[2] = Drug localization in endoplasmic reticulum of human HepG2 cells at 7.5 uM after 8 hrs by ER-Tracker Red dye-based confocal fluorescence microscopic analysis; assay type: ADME, subcellular; details: hepg2, 8 h
[3] = Cytotoxicity against human QSG7701 cells up to 15 uM after 48 hrs by MTT assay; assay type: cell-based
[4] = system: HepG2; experiment: Induction of apoptosis in human HepG2 cells assessed as early apoptotic cells at 5 uM after 8 hrs by Annexin V-FITC/propidium iodide staining-based flow cytometry (reference value: 1.29%); assay type: functional
[5] = system: HepG2; experiment: Induction of apoptosis in human HepG2 cells assessed as early apoptotic cells at 5 uM after 48 hrs by Annexin V-FITC/propidium iodide staining-based flow cytometry (reference value: 1.30%); assay type: functional
[6] = system: Mus musculus; experiment: Toxicity in Kunming mouse xenografted with […] H22 cells assessed as effect on lung weight index at 30 mg/kg, iv administered for 7 consecutive days; assay type: organism-based; details: in vivo
[7] = system: HepG2; experiment: Induction of apoptosis in human HepG2 cells assessed as necrotic cells at 7.5 uM after 36 hrs by Annexin V-FITC/propidium iodide staining-based flow cytometry (reference value: 0.24%); assay type: functional
[8] = system: HepG2; experiment: Induction of apoptosis in human HepG2 cells assessed as necrotic cells at 2.5 uM after 8 hrs by Annexin V-FITC/propidium iodide staining-based flow cytometry (reference value: 0.40%); assay type: functional
[9] = system: HepG2; experiment: Induction of apoptosis in human HepG2 cells assessed as viable cells at 5 uM after 8 hrs by Annexin V-FITC/propidium iodide staining-based flow cytometry (reference value: 97.43%); assay type: functional; details: HepG2, 8 h, read-out: Activity
[10] = system: HepG2; experiment: Induction of apoptosis in human HepG2 cells assessed as viable cells at 2.5 uM after 8 hrs by Annexin V-FITC/propidium iodide staining-based flow cytometry (reference value: 97.43%); assay type: functional; details: HepG2, 8 h, read-out: Activity
[11] = system: HepG2; experiment: Induction of apoptosis in human HepG2 cells assessed as upregulation of active caspase 9 level after 48 hrs by immunofluorescence staining-based high content screening assay; assay type: functional, cell-based
[12] = system: HepG2; experiment: Induction of apoptosis in human HepG2 cells assessed as early apoptotic cells at 7.5 uM after 48 hrs by Annexin V-FITC/propidium iodide staining-based flow cytometry (reference value: 1.30%); assay type: functional
[13] = system: HepG2; experiment: Induction of apoptosis in human HepG2 cells assessed as increase in Bax protein expression after 48 hrs by immunofluorescence staining-based high content screening assay; assay type: functional, cell-based
[14] = system: HepG2; experiment: Induction of apoptosis in human HepG2 cells assessed as increase in cleaved PARP1 levels after 48 hrs by immunofluorescence staining-based high content screening assay; assay type: functional, cell-based
[15] = system: HT-29; experiment: Antiproliferative activity against human HT-29 cells after 48 hrs by MTT assay; assay type: functional, cell-based; details: HT-29, 48 h
[16] = system: HepG2; experiment: Induction of apoptosis in human HepG2 cells assessed as viable cells at 5 uM after 24 hrs by Annexin V-FITC/propidium iodide staining-based flow cytometry (reference value: 96.97%); assay type: functional; details: HepG2, 24 h, read-out: Activity
[17] = system: HepG2; experiment: Induction of apoptosis in human HepG2 cells assessed as necrotic cells at 2.5 uM after 24 hrs by Annexin V-FITC/propidium iodide staining-based flow cytometry (reference value: 0.12%); assay type: functional
[18] = system: HepG2; experiment: Induction of apoptosis in human HepG2 cells assessed as late apoptotic cells at 5 uM after 8 hrs by Annexin V-FITC/propidium iodide staining-based flow cytometry (reference value: 0.88%); assay type: functional
[19] = system: HepG2; experiment: Induction of apoptosis in human HepG2 cells at 5 uM preincubated cells with autophagy inhibitor 3-MA for 2 hrs followed by compound addition measured after 48 hrs by Annexin V-FITC/propidium iodide staining-based flow cytometry relative to control; assay type: functional; set-up: scale not given: the % may be the effect or the level left
[20] = system: Mus musculus; experiment: Toxicity in Kunming mouse xenografted with […] H22 cells assessed as effect on body weight at 30 mg/kg, iv administered for 7 consecutive days; assay type: organism-based; details: in vivo
[21] = system: HepG2; experiment: Induction of apoptosis in human HepG2 cells assessed as disruption of mitochondrial membrane potential after 48 hrs by Rh123 staining-based fluorescence quenching analysis; assay type: functional, cell-based
[22] = system: HepG2; experiment: Induction of apoptosis in human HepG2 cells assessed as increase in p53 protein expression after 48 hrs by immunofluorescence staining-based high content screening assay; assay type: functional, cell-based
[23] = system: HepG2; experiment: Induction of apoptosis in human HepG2 cells assessed as late apoptotic cells at 5 uM after 36 hrs by Annexin V-FITC/propidium iodide staining-based flow cytometry (reference value: 1.08%); assay type: functional
[24] = system: HepG2; experiment: Induction of apoptosis in human HepG2 cells assessed as early apoptotic cells at 2.5 uM after 24 hrs by Annexin V-FITC/propidium iodide staining-based flow cytometry (reference value: 2.07%); assay type: functional
[25] = system: HepG2; experiment: Antiproliferative activity against human HepG2 cells after 48 hrs by MTT assay; assay type: functional, cell-based; details: HepG2, 48 h
[26] = Drug localization in nucleus of human HepG2 cells at 7.5 uM after 8 hrs by Hoechst 33342 staining-based HCS analysis; assay type: ADME, subcellular; details: hepg2, 8 h
[27] = system: Mus musculus; experiment: Toxicity in Kunming mouse xenografted with […] H22 cells assessed as effect on spleen weight index at 30 mg/kg, iv administered for 7 consecutive days; assay type: organism-based; details: in vivo
[28] = system: HepG2; experiment: Induction of apoptosis in human HepG2 cells assessed as early apoptotic cells at 5 uM after 36 hrs by Annexin V-FITC/propidium iodide staining-based flow cytometry (reference value: 2.08%); assay type: functional
[29] = Drug localization in mitochondria of human HepG2 cells at 7.5 uM after 8 hrs by MitoTracker Green dye-based confocal fluorescence microscopic analysis; assay type: ADME; details: hepg2, 8 h
[30] = Drug localization in golgi apparatus of human HepG2 cells at 7.5 uM after 8 hrs by Golgi-Tracker Red dye-based confocal fluorescence microscopic analysis; assay type: ADME, subcellular; details: hepg2, 8 h
[31] = system: Mus musculus; experiment: Toxicity in Kunming mouse xenografted with […] H22 cells assessed as effect on heart weight index at 30 mg/kg, iv administered for 7 consecutive days; assay type: organism-based; details: in vivo
[32] = system: HepG2; experiment: Induction of apoptosis in human HepG2 cells assessed as necrotic cells at 5 uM after 24 hrs by Annexin V-FITC/propidium iodide staining-based flow cytometry (reference value: 0.12%); assay type: functional
[33] = system: HepG2; experiment: Induction of apoptosis in human HepG2 cells assessed as upregulation of active caspase 8 level after 48 hrs by immunofluorescence staining-based high content screening assay; assay type: functional, cell-based
[34] = system: HepG2; experiment: Induction of apoptosis in human HepG2 cells assessed as late apoptotic cells at 7.5 uM after 24 hrs by Annexin V-FITC/propidium iodide staining-based flow cytometry (reference value: 0.88%); assay type: functional
[35] = system: HepG2; experiment: Induction of apoptosis in human HepG2 cells assessed as late apoptotic cells at 7.5 uM after 36 hrs by Annexin V-FITC/propidium iodide staining-based flow cytometry (reference value: 1.08%); assay type: functional
[36] = system: HepG2; experiment: Induction of apoptosis in human HepG2 cells assessed as viable cells at 2.5 uM after 48 hrs by Annexin V-FITC/propidium iodide staining-based flow cytometry (reference value: 96.67%); assay type: functional; details: HepG2, 48 h, read-out: Activity

For `COc1ccc2cc(-c3oc4c(CNCCCCN)cccc4c(=O)c3OC)ccc2c1Br.Cl.Cl`, the viability at 7.5 µM [1] was 64.7%, the Drug uptake [2] was “Active” and the Activity [3] was “Non-Toxic”. The Activity [4] was 5.06%, the Activity [5] was 26.36% and the Activity [6] was “Non-Toxic”. It also gave an Activity [7] of 0.26%, an Activity [8] of 0.3% and a viability at 5 µM [9] of 93%. The viability at 2.5 µM [10] was 96.1%, the Activity [11] was “Dose-dependent effect” and the Activity [12] was 23.02%. For the same compound, the Activity [13] was “Dose-dependent effect”, the Activity [14] was “Dose-dependent effect” and the pIC50 [15] was 4.83. The viability at 5 µM [16] was 82.2%, the Activity [17] was 0% and the Activity [18] was 1.91%. For the same compound, the Activity [19] was 53.07%, the Activity [20] was “Non-Toxic” and the Activity [21] was “Dose-dependent effect”. The Activity [22] was “Dose-dependent effect”, the Activity [23] was 2.15% and the Activity [24] was 10.46%. The pIC50 [25] was 5.15, the Drug uptake [26] was “Not Active” and the Activity [27] was “Non-Toxic”. The Activity [28] was 16.72%, the Drug uptake [29] was “Active” and the Drug uptake [30] was “Not Active”. The Activity [31] was “Non-Toxic”, the Activity [32] was 0.05% and the Activity [33] was “Dose-dependent effect”. For the same compound, the Activity [34] was 9.48%, the Activity [35] was 6.3% and the viability at 2.5 µM [36] was 74.1%.
